Where two headings read alike, the source gives them in different places.
Tests used:
hSirt3^102-399 [1] = biological target: T1, hSirt3^102-399 (Homo sapiens, UniProt Q9NTG7); assay: biochemical; conditions: read-out: % Control Steady-state
T1 sequence (Q9NTG7 102-399): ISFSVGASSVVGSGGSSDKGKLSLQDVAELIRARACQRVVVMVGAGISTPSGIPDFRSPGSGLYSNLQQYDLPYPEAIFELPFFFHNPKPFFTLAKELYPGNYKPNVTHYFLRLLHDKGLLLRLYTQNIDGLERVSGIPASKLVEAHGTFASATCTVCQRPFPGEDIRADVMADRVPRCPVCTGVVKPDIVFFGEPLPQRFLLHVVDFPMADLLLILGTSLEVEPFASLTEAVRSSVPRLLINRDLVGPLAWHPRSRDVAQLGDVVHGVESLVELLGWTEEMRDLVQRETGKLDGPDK

hSirt3^102-399 [2] = biological target: T1, hSirt3^102-399; assay: biochemical; conditions: read-out: % Control Non-Steady state

C=CCc1ccc(O)c(-c2ccc(O)c(CC=C)c2)c1 [Honokiol]
remaining activity at 10 µM (hSirt3^102-399 [1]): 85.9%
remaining activity at 10 µM (hSirt3^102-399 [2]): 110%
